Reference: US20070082910A1, “Specific nad(p)h oxidase inhibitor” (Mitsubishi Pharma Corporation, priority 2003, published 2007)
Marks after values point to notes of the source that are not given here.

Tests used:
p22^Phox = assay: Effect on p22^Phox expression induced by oxidized LDL in HUVEC (RT-PCR); assay type: cell-based, human
Description: HUVEC was seeded in a 24-well collagen-coated plate. Compound A was added, and oxidized LDL (100 μg/mL) prepared from the blood obtained from normal healthy volunteers was added 24 hr later.
At 24 hr after the oxidized LDL addition, total RNA was […] extracted using MgExtractor (TOYOBO) and DNase I treatment (Nippon gene) was conducted.
The concentration of the total RNA was calculated by measuring absorbance (OD260) of a fraction therefrom.
Using the obtained total RNA (100 ng), RT (reverse transcription) reaction (ABI) was carried out to synthesis cDNA.
Using the synthesized cDNA (10 μL), PCR (polymerase chain reaction) was carried out (ABI), and expression amounts of p22^Phox which is a major component of NAD(P)H oxidase, and β-actin as an internal standard were measured.
The expression amount of p22^Phox was standardized to the expression amount of β-actin and expressed based on the expression amount of (p22^Phox)/( β-actin) of normal as 100%.

[1] = tested on: rat acute myocardial infarction model; assay: Rat left coronary artery-ligated myocardial infarction model; assay type: in vivo
From the text: Male SD rats (Japan SLC) were fixed in the dorsal position with ether anesthesia, and subjected to thoracotomy by vertical incision along the left sternal line according to the method by Selye H. et al. (Angiology, 1960, 11, 398) to expose the heart. The left coronary artery was ligated using a silk thread (No. 4) at 1-2 mm from the basal part, the heart was put back in place and quickly deaerated, and the chest was closed. The rat was confirmed to have myocardial infarction with an electrocardiograph (NIHON KOHDEN). The rat was exsanguinated to death from the abdominal aorta 24 hr after ligation. The heart was removed, and a circular cross-section at the center thereof was incubated in a solution of 1% 2,3,5-triphenyltetrazolium chloride (hereinafter to be indicated as “TTC”) in 0.1 M phosphate buffer for 20 min under light shielding. Thereafter, the section was fixed with formalin buffer, traced, and the areas of infarction region (TTC unstained region) and left ventricle were calculated. Immediately after coronary artery ligation, compound A was suspended in 1% CMC solution and orally administered to the rat.
The inhibitory rate was calculated by the following formula: [formula] [formula]
In addition, compound A (1 mg/kg) was orally administered at 15 min, 1 hr and 3 hr after ligation, and infarction inhibitory effect was examined.

[2] = tested on: atherosclerosis rabbit model; assay: Atherosclerosis inhibitory effect in cholesterol-fed rabbits; assay type: in vivo; details: for lipid-deposition area (%), abdominal aorta / lipid-deposition area (%), thoracic aorta: 12 weeks, 0.67% cholesterol feed; for lipid-deposition area (%), abdominal aorta / lipid-deposition area (%), thoracic aorta / Plasma lipid concentration TC: mean ± standard error; for Plasma lipid concentration TC: 12 weeks from cholesterol-loading
Description: A 0.67% cholesterol-containing feed (40 g/kg/day) and compound A were given to male NZW rabbits (Japan SLC) for 12 weeks. Blood was drawn from the auricular vein using a heparinized capillary tube, and centrifuged at 3000 rpm for 10 min. The total cholesterol (hereinafter to be indicated as “TC”) value of the obtained plasma was measured by an enzyme assay using a measurement kit.
After 12 weeks, the carotid artery was peeled and removed with pentobarbital anesthesia, and exsanguinated to remove the aorta. The obtained carotid artery was immediately placed in Krebs buffer, the surrounding tissues were carefully removed, and the ring specimen was prepared trying not to damage endothelial cells. Then, the ring specimen was suspended in a Magnus tank filled with Krebs buffer at 37° C. under an air flow of 95% O2-5% CO2 mixed gas. The experiment was conducted after reaching a steady state by loading 2 g tension.
For the measurement of a relaxation response, the specimen was contracted in advance with norepinephrine, and when the contraction reached steady state, acetylcholine was cumulatively added. The vascular relaxation rate was determined based on the contraction induced by 10 μM norepinephrine as 100%.
Using a transducer (NIHON KOHDEN), tension was measured isometrically. The significant difference was tested for by variance analysis with two-way layout (Dunnett's method) relative to the control group.
The removed aorta was divided into arch aorta, thoracic aorta and abdominal aorta, fixed with 10% formalin buffer, photographed, the area of the lipid adhered to the aorta was measured and the proportion of the area of the lipid-deposition area relative to the area of aorta was determined.

[3] = tested on: NAD(P)H oxidase in diabetic rat aorta; assay: Aorta NAD(P)H oxidase inhibitory effect, test compound added to aorta ring specimen in vitro; assay type: biochemical; details: for chemiluminescence (×10^5 RLU/wet weight of aorta): mean ± standard error
Description: This ring specimen was preincubated in Krebs-Hepes buffer containing the test compound (compound A, compound B or DPI (SIGMA)) at 37° C. for 10 min, and then transferred to Krebs-Hepes buffer containing 0.25 mM lucigenin. […] The total value of chemiluminescence was calculated from AUC of the curve drawn by plotting the chemiluminescence value (vertical axis) relative to the measurement time (horizontal axis). The obtained chemiluminescence value was divided by the wet weight of the vascular ring specimen and standardized to the superoxide anion production per aorta unit weight.

leukocyte NADPH oxidase = assay: Effect on leukocyte NADPH oxidase (PMA-stimulated lucigenin chemiluminescence); assay type: cell-based, rat
Description: Blood was drawn from the abdominal aorta of normal male Wister rats (Japan SLC) and immediately mixed with an ice-cold lysis buffer at 42 mL of the buffer per 3 mL of the blood.
After 5 min, the mixture was centrifuged at 4° C., 1100 rpm for 5 min. The precipitate was suspended in an ice-cold Lysis buffer, and centrifuged again at 4° C., 1100 rpm for 5 min. This operation was repeated 3 times to obtain leukocytes. The obtained leukocytes were suspended in Krebs-Hepes buffer and the number of the cells was adjusted to 1×10^6/ml. 0.25 mM Lucigenin and the test agent were added, Phorbol 12-myristate 13-acetate (hereinafter to be indicated as “PMA”, SIGMA) was further added, and the chemiluminescence value was measured at 37° C. for 10 min.
The inhibitory rate (%) was calculated by the following formula: inhibitory rate (%)=100−[(A−C)/(B−C))×[…] wherein A is the total chemiluminescence value of the leukocyte suspension with the addition of the test compound, B is the total chemiluminescence value of the leukocyte suspension (control) without addition of the test compound, and C is the total chemiluminescence value of the leukocyte suspension without stimulation with PMA.

[4] = 0.1 mg/kg oral immediately after coronary artery ligation, 24 hr
[5] = 0.3 mg/kg oral immediately after coronary artery ligation, 24 hr
[6] = 1 mg/kg oral immediately after coronary artery ligation, 24 hr
[7] = 1 mg/kg oral, 15 min after ligation
[8] = 1 mg/kg oral, 1 hr after ligation
[9] = 1 mg/kg oral, 3 hr after ligation
[10] = 0.1 μM added to aorta ring in vitro
[11] = 1 μM added to aorta ring in vitro

In the case of `C[C@@H](Nc1nnc(-c2ccccc2)c2ccccc12)C1CCCCC1.O=C(O)/C=C\C(=O)O` [compound A], the “p22^phox expression ((p22^Phox)/(β-actin), normal as 100%)” value (p22^Phox; oxidized LDL 100 μg/mL + 0.1 μM compound, mean ± standard error) is reported as 116.64 ± 16.61 %, the “p22^Phox expression relative to the normal group” value (p22^Phox; oxidized LDL addition) is reported as 1.2 fold and the “infarction rate (%)” value [1, 4] is reported as 40%. For the same compound, the “inhibitory rate (%) of infarction” value [1, 4] was 0%, the “infarction rate (%)” value [1, 5] was 17.2** % and the “inhibitory rate (%) of infarction” value [1, 5] was 57** %. The “infarction rate (%)” value [1, 6] was 6.3** %, the “inhibitory rate (%) of infarction” value [1, 6] was 84.3** % and the “infarction rate (%)” value [1, 7] was 10.5** %. The “inhibitory rate (%) of infarction” value [1, 7] was 73.8%, the “infarction rate (%)” value [1, 8] was 16.7** % and the “inhibitory rate (%) of infarction” value [1, 8] was 58.3%. The “infarction rate (%)” value [1, 9] was 29.3* %, the “inhibitory rate (%) of infarction” value [1, 9] was 26.8% and the “lipid-deposition area (%), abdominal aorta” value ([2]; 1 mg/kg) was 25.4 ± 6.2 %. For the same compound, the “lipid-deposition area (%), thoracic aorta” value ([2]; 1 mg/kg) was 62.1 ± 10.0 %, the “Plasma lipid concentration TC” value ([2]; 1 mg/kg) was 1895.3 ± 244.6 mg/dL and the “lipid-deposition area (%), abdominal aorta” value ([2]; 10 mg/kg) was 18.2 ± 2.2 %. The “lipid-deposition area (%), thoracic aorta” value ([2]; 10 mg/kg) was 56.5 ± 10.5 %, the “Plasma lipid concentration TC” value ([2]; 10 mg/kg) was 1887.9 ± 103.9 mg/dL and the “endothelial-dependent relaxation response of carotid artery by Ach” value ([2]; Ach 10^−8 to 10^−5 M, FIG. 1, result in words) was “significantly improved as compared to the control group”. For the same compound, the “inhibitory rate (%)” value [3, 10] was 2.2%, the “chemiluminescence (×10^5 RLU/wet weight of aorta)” value [3, 10] was 9.1 ± 1.7 ×10^5 RLU/wet weight of aorta and the “inhibitory rate (%)” value [3, 11] was 1.1%. The “chemiluminescence (×10^5 RLU/wet weight of aorta)” value [3, 11] was 9.2 ± 1.7 ×10^5 RLU/wet weight of aorta, the “NAD(P)H oxidase inhibitory effect on aorta ring in vitro” value ([3]; result in words) was “did not show an NAD(P)H oxidase inhibitory effect” and the “inhibitory rate (%), leukocyte NADPH oxidase” value (leukocyte NADPH oxidase; 1 μM, PMA-stimulated rat leukocytes, mean ± standard error) was 2.4 ± 13.6%. The “inhibitory effect on leukocyte NADPH oxidase” value (leukocyte NADPH oxidase; result in words) was “did not show an inhibitory effect on leukocyte NADPH oxidase”.
